The EC50 is the midpoint of the concentration-response curve.

Structures are written as SMILES.

25 compounds from patent US8119624B2, “Fused phenyl amido heterocyclic compounds” (Pfizer Inc., priority 2006, dated 2012) can be followed below.

In this test the target is T1, Full-length glucokinase (beta cell isoform) (Homo sapiens, UniProt P35557).
T1 construct: Full-length glucokinase (beta cell isoform) was His-tagged at N-terminus; His tag (N); made in house
T1 sequence (P35557 1-465): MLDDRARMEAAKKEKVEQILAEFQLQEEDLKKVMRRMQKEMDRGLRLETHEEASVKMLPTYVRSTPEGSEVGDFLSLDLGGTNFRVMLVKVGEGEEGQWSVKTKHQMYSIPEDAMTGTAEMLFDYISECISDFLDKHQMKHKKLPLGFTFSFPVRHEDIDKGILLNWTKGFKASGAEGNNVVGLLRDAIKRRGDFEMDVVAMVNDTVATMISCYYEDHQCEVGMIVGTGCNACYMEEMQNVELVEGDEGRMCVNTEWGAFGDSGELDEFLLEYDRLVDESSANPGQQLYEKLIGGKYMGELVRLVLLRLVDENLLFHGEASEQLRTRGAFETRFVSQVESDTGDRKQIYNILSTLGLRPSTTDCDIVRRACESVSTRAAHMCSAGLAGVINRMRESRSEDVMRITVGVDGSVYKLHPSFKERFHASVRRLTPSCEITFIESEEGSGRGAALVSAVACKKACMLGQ
As to the kind of experiment: Glucokinase biochemical assay (PK/LDH-coupled, NADH depletion at 340 nm): % activation, EC50, % max activation. To be noted: 5 mM glucose; for activation at 10 µM: 10 uM compound, % Activation=(Va/Vo−1)×100, read-out: % Activation at 10 uM; for EC50: GK activation, read-out: EC50; for Emax: fitted maximum activation, read-out: % Max Activation. In short, it runs like this: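 N-terminally His-tagged full-length human beta-cell glucokinase, room temperature, 5 mM glucose, 1 mM ATP, PK/LDH-coupled with 0.7 mM NADH, 1% DMSO final. Initial velocity from the 200–900 s slope of A340 decline. % activation = (Va/Vo−1)×100, measured across compound concentrations.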

In the case of `Cc1cc2c(Oc3ccc(S(C)(=O)=O)cc3)cc(C(=O)Nc3cnn(C)n3)cc2o1` [Example 267, 2-Methyl-N-(2-methyl-2H-1,2,3-triazol-4-yl)-4-(4-(methylsulfonyl)phenoxy)-benzofuran-6-carboxamide], the activation at 10 µM was 145%, the EC50 was determined as 1700 nM and the Emax came to 165%.
Turning to `Cc1cc2c(Oc3ccc(S(C)(=O)=O)cc3)cc(C(=O)Nc3cccc(CO)n3)cc2o1` [Example 268, N-(6-(Hydroxymethyl)pyridin-2-yl)-2-methyl-4-(4-(methylsulfonyl)phenoxy)-benzofuran-6-carboxamide], the activation at 10 µM came to 6.4% and the EC50 was greater than 10000 nM.
As for `Cc1cc2c(Oc3ccc(S(C)(=O)=O)cc3)cc(C(=O)Nc3cccc(C(C)O)n3)cc2o1` (centres unmarked) [Example 269, N-(6-(1-Hydroxyethyl)pyridin-2-yl)-2-methyl-4-(4-(methylsulfonyl)phenoxy)-benzofuran-6-carboxamide], the activation at 10 µM worked out at 34.8%, the EC50 turned out to be 7000 nM and the Emax turned out to be 59%.
For the compound `CCOc1ccc(NC(=O)c2cc(Oc3ccc(S(C)(=O)=O)cc3)c3cc(C)oc3c2)nc1` [Example 270, N-(5-ethoxypyridin-2-yl)-2-methyl-4-(4-(methylsulfonyl)-phenoxy)benzofuran-6-carboxamide], the activation at 10 µM stood at 98.2%, the EC50 was determined as 7100 nM and the Emax was 139%.
The like results for `Cc1cc2c(Oc3ccc(S(C)(=O)=O)cc3)cc(C(=O)Nc3ccn(C)n3)cc2o1` [Example 271, 4-(4-(Methylsulfonyl)phenoxy)-2-methyl-N-(1-methyl-1H-pyrazol-3-yl)benzofuran-6-carboxamide] were, in that order, 148%, 1300 nM and 184%.
For the compound `Cc1cc2c(Oc3ccc(C(=O)N(C)C)c(F)c3)cc(C(=O)Nc3ccn(C)n3)cc2o1` [Example 272, 4-(4-(Dimethylcarbamoyl)-3-fluorophenoxy)-2-methyl-N-(1-methyl-1H-pyrazol-3-yl)benzofuran-6-carboxamide], the activation at 10 µM came to 49.6%, the EC50 stood at 310 nM and the Emax was determined as 51%.
With `Cc1ccc(NC(=O)c2cc(Oc3ccc(C(=O)N(C)C)c(F)c3)c3cc(C)oc3c2)nc1` [Example 273, 4-(4-(Dimethylcarbamoyl)-3-fluorophenoxy)-2-methyl-N-(5-methylpyridin-2-yl)benzofuran-6-carboxamide], the activation at 10 µM was found to be 12.7%.
In the case of `CCc1cc2c(Oc3ccc(S(C)(=O)=O)cc3)cc(C(=O)Nc3ccc(C)cn3)cc2o1` [Example 274, 2-Ethyl-N-(5-methylpyridin-2-yl)-4-[4-(methylsulfonyl)-phenoxy]-1-benzofuran-6-carboxamide], the activation at 10 µM is 131%, the EC50 was 2400 nM and the Emax came to 121%.
The corresponding values for `CCc1cc2c(Oc3ccc(S(C)(=O)=O)cc3)cc(C(=O)Nc3ccn(C)n3)cc2o1` [Example 275, 2-Ethyl-N-(1-methyl-1H-pyrazol-3-yl)-4-[4-(methylsulfonyl)-phenoxy]-1-benzofuran-carboxamide] are 211%, 2600 nM and 210%.
Turning to `CCc1cc2c(Oc3ccc(C(=O)N(C)C)cc3)cc(C(=O)Nc3ccc(C)cn3)cc2o1` [Example 276, 4-{4-[(Dimethylamino)carbonyl]phenoxy}-2-ethyl-N-(5-methylpyridin-2-yl)-1-benzofuran-6-carboxamide], the activation at 10 µM was found to be 20%.
For `Cc1ccc(NC(=O)c2cc(Oc3ccc(C(=O)N(C)C)nc3)c3cc(C)oc3c2)nc1` [Example 277, N,N-Dimethyl-5-[(2-methyl-6-{[(5-methylpyridin-2-yl)amino]-carbonyl}-1-benzofuran-4-yl)oxy]pyridine-2-carboxamide], the activation at 10 µM came to 34.2%.
Regarding `Cc1cc2c(Oc3ccc(C(=O)N(C)C)nc3)cc(C(=O)Nc3cnn(C)n3)cc2o1` [Example 278, N,N-Dimethyl-5-(2-methyl-6-((2-methyl-2H-1,2,3-triazol-4-yl)carbamoyl)-benzofuran-4-yloxy)picolinamide], the activation at 10 µM turned out to be 131%, the EC50 is 470 nM and the Emax worked out at 123%.
Regarding `COc1cnc(NC(=O)c2cc(Oc3ccc(C(=O)N(C)C)nc3)c3cc(C)oc3c2)cn1` [Example 279, 5-(6-((5-Methoxypyrazin-2-yl)carbamoyl)-2-methylbenzofuran-4-yloxy)-N,N-dimethylpicolinamide], the activation at 10 µM stood at 84.3%, the half-maximal effective concentration (EC50) stood at 430 nM and the Emax was 105%.
Regarding `Cc1cc2c(Oc3ccc(S(C)(=O)=O)cn3)cc(C(=O)Nc3cnc(N(C)C)cn3)cc2o1` [Example 280, N[5-(Dimethylamino)pyrazin-2-yl]-2-methyl-4-{[5-(methylsulfonyl)pyridin-2-yl]oxy}-1-benzofuran-6-carboxamide], the activation at 10 µM came to 130%, the EC50 is 2400 nM and the Emax came to 148%.
As to `Cc1ccc(NC(=O)c2cc(Oc3ccc(S(C)(=O)=O)cn3)c3cc(C)oc3c2)nc1` [Example 281, 2-Methyl-N-(5-methylpyridin-2-yl)-4-(5-(methylsulfonyl)pyridin-2-yloxy)-benzofuran-6-carboxamide], the activation at 10 µM stood at 92.7%, the EC50 came out at 2100 nM and the Emax worked out at 87%.
On to `Cc1cc2c(Oc3ccc(S(C)(=O)=O)cn3)cc(C(=O)Nc3cnn(C)n3)cc2o1` [Example 282, 2-Methyl-N-(2-methyl-2H-1,2,3-triazol-4-yl)-4-(5-(methylsulfonyl)pyridin-2-yloxy)benzofuran-6-carboxamide], for which the activation at 10 µM came to 140% and the EC50 is greater than 10000 nM.
The like results for `Cc1cc2c(Oc3ccc(S(C)(=O)=O)cn3)cc(C(=O)Nc3ccn(C)n3)cc2o1` [Example 283, 2-Methyl-N-(1-methyl-1H-pyrazol-3-yl)-4-(5-(methylsulfonyl)-pyridin-2-yloxy)-benzofuran-6-carboxamide] were, in that order, 132% and greater than 10000 nM.
With `COc1cnc(NC(=O)c2cc(Oc3ccc(S(C)(=O)=O)cn3)c3cc(C)oc3c2)cn1` [Example 284, N-(5-Methoxypyrazin-2-yl)-2-methyl-4-(5-(methylsulfonyl)-pyridin-2-yloxy)-benzofuran-6-carboxamide], the activation at 10 µM stood at 86.1%, the EC50 was 5500 nM and the Emax was found to be 218%.
Take `Cc1ccc(NC(=O)c2cc(Oc3ccc(S(C)(=O)=O)cc3)c3cc(C(=O)N(C)C)oc3c2)nc1` [Example 285, N2,N2-Dimethyl-N6-(5-methylpyridin-2-yl)-4-(4-(methylsulfonyl)-phenoxy)-benzofuran-2,6-dicarboxamide]: the activation at 10 µM was 121%, the EC50 stood at 547 nM and the Emax is 118%.
`CN(C)C(=O)c1cc2c(Oc3ccc(S(C)(=O)=O)cc3)cc(C(=O)Nc3ccn(C)n3)cc2o1` [Example 286, N2,N2-Dimethyl-N6-(1-methyl-1H-pyrazol-3-yl)-4-[4-(methylsulfonyl)phenoxy]-1-benzofuran-2,6-dicarboxamide]: the activation at 10 µM stood at 178%, the EC50 turned out to be 2600 nM and the Emax was 224%.
As for `COc1cnc(NC(=O)c2cc(Oc3ccc(S(C)(=O)=O)cc3)c3cc(C(=O)N(C)C)oc3c2)cn1` [Example 287, N6-(5-Methoxypyrazin-2-yl)-N2,N2-dimethyl-4-[4-(methylsulfonyl)phenoxy]-1-benzofuran-2,6-dicarboxamide], the activation at 10 µM came to 80.3%, the EC50 was 562 nM and the Emax worked out at 169%.
Consider `CN(C)C(=O)c1cc2c(Oc3ccc(S(C)(=O)=O)cc3)cc(C(=O)Nc3cnn(C)n3)cc2o1` [Example 288, N2,N2-Dimethyl-4-[4-(methylsulfonyl)phenoxy]-N6-(2-methyl-2H-1,2,3-triazol-4-yl)-1-benzofuran-2,6-dicarboxamide], for which the activation at 10 µM is 161%, the EC50 was determined as 1700 nM and the Emax stood at 188%.
The like results for `COc1ccnc(NC(=O)c2cc(Oc3ccc(S(C)(=O)=O)cc3)c3cc(C(=O)N(C)C)oc3c2)c1` [Example 289, N6-(4-Methoxypyridin-2-yl)-N2,N2-dimethyl-4-[4-(methylsulfonyl)phenoxy]-1-benzofuran-2,6-dicarboxamide] were, in that order, 73.8%, 7800 nM and 133%.
On to `Cc1ccc(NC(=O)c2cc(Oc3ccc(S(C)(=O)=O)cc3)c3cc(C(=O)N4CCC4)oc3c2)nc1` [Example 290, 2-(Azetidin-1-ylcarbonyl)-N-(5-methylpyridin-2-yl)-4-[4-(methylsulfonyl)-phenoxy]-1-benzofuran-6-carboxamide], for which the activation at 10 µM came out at 12.8%.
The same measure, in the same setting: then `Cn1ccc(NC(=O)c2cc(Oc3ccc(S(C)(=O)=O)cc3)c3cc(C(=O)N4CCC4)oc3c2)n1` [Example 291, 2-(Azetidin-1-ylcarbonyl)-N-(1-methyl-1H-pyrazol-3-yl)-4-[4-(methylsulfonyl)-phenoxy]-1-benzofuran-6-carboxamide], with 12.7%.
